In patent publication US20250290117A1, “MOLECULAR PHENOTYPIC ANTIMICROBIAL SUSCEPTIBILITY TESTING” (priority 2024, published 2025):

Experiments:
[1] = test system: E. coli; test: Molecular phenotypic antimicrobial susceptibility test, specimen with two detected pathogens incubated together without isolation; type: cell-based, Escherichia coli; conditions: E. coli in specimen with two detected pathogens (E. coli and M. morganii) incubated together
How it was run: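 Susceptibility read molecularly: growth means resistance, prevented growth sensitivity, versus antibiotic-free control wells. Co-detected pathogens stay together without isolation; after 4-6 h preincubation and PCR identification (threshold >10,000 cells/mL), inoculum adjusted to 0.5 McFarland and placed on thawed plates with each drug at its breakpoint concentration(s).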

[2] = test system: pathogen of the specimen; test: Molecular phenotypic antimicrobial susceptibility test with direct PCR at various incubation timepoints (Table 7); type: cell-based
How it was run: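 This molecular phenotypic susceptibility test gauges whether antimicrobials prevent (sensitive) or allow (resistant) pathogen growth. The cultured specimen is adjusted to 0.5 McFarland and plated against antimicrobial solutions at breakpoint concentrations alongside drug-free controls. Following incubation, cells are lysed without extraction and amplified by semi-quantitative PCR; Ct values are compared against the control wells to assign results.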

Trimethoprim/Sulfamethoxazole [TMP/SMX]
Ct of Sensitive Breakpoint ([1]; Ct of controls (average) 15.93): 27.67
Molecular Antimicrobial Susceptibility Result ([1]; at sensitive breakpoint): Sensitive (Antimicrobial wells with pathogen load detected below the control wells (typically >2 cycle thresholds later) may be reported as Sensitive)
Molecular Antimicrobial Susceptibility Result ([2]; E. coli isolate 1189, antibiotic incubation time 4 hours): Sensitive (Antimicrobial wells with pathogen load detected below the control wells (typically >2 cycle thresholds later) may be reported as Sensitive)
Ct at Sensitive Breakpoint ([2]; E. coli isolate 1189, antibiotic incubation time 4 hours, control average Ct […]): 24.603
Molecular Antimicrobial Susceptibility Result ([2]; E. coli isolate 1189, antibiotic incubation time 6 hours): Sensitive (Antimicrobial wells with pathogen load detected below the control wells (typically >2 cycle thresholds later) may be reported as Sensitive)
Ct at Sensitive Breakpoint ([2]; E. coli isolate 1189, antibiotic incubation time 6 hours, control average Ct 16.992): 23.984
Molecular Antimicrobial Susceptibility Result ([2]; E. coli isolate 1189, antibiotic incubation time 8 hours): Sensitive (Antimicrobial wells with pathogen load detected below the control wells (typically >2 cycle thresholds later) may be reported as Sensitive)
Ct at Sensitive Breakpoint ([2]; E. coli isolate 1189, antibiotic incubation time 8 hours, control average Ct […]): 24.482
Molecular Antimicrobial Susceptibility Result ([2]; E. coli isolate 1189, antibiotic incubation time 10 hours): Sensitive (Antimicrobial wells with pathogen load detected below the control wells (typically >2 cycle thresholds later) may be reported as Sensitive)
Ct at Sensitive Breakpoint ([2]; E. coli isolate 1189, antibiotic incubation time 10 hours, control average Ct 15.995): 24.129
Molecular Antimicrobial Susceptibility Result ([2]; E. coli isolate 1189, antibiotic incubation time 12 hours): Sensitive (Antimicrobial wells with pathogen load detected below the control wells (typically >2 cycle thresholds later) may be reported as Sensitive)
Ct at Sensitive Breakpoint ([2]; E. coli isolate 1189, antibiotic incubation time 12 hours, control average Ct 15.495): 23.878
Molecular Antimicrobial Susceptibility Result ([2]; E. coli isolate 1189, antibiotic incubation time 14 hours): Sensitive (Antimicrobial wells with pathogen load detected below the control wells (typically >2 cycle thresholds later) may be reported as Sensitive)
Ct at Sensitive Breakpoint ([2]; E. coli isolate 1189, antibiotic incubation time 14 hours, control average Ct 15.826): 24.017
Molecular Antimicrobial Susceptibility Result ([2]; E. coli isolate 1189, antibiotic incubation time 16 hours): Sensitive (Antimicrobial wells with pathogen load detected below the control wells (typically >2 cycle thresholds later) may be reported as Sensitive)
Ct at Sensitive Breakpoint ([2]; E. coli isolate 1189, antibiotic incubation time 16 hours, control average Ct 14.880): 23.552
